Values quoted from earlier work as cited in US9636300B2, “Racecadotril lipid compositions” (JOHNSON & JOHNSON CONSUMER INC., priority 2013, dated 2017).

Details: room temperature conditions

water solubility: about 10 micrograms/ml
SMILES: CC(=O)SCC(Cc1ccccc1)C(=O)NCC(=O)OCc1ccccc1 (stereo not shown) [Racecadotril]
